Reference: PMC7222207, “Characterization of a CholesteroNitrone (ISQ-201), a Novel Drug Candidate for the Treatment of Ischemic Stroke” (Antioxidants, 2020)

Legend:
[1] = test system: transient forebrain ischemia; experiment: Long-term behavioral tests in Y maze (exploration, spatial recognition, spatial memory); assay type: in vivo, male Wistar rats; details: 0.05 mg/kg iv at reperfusion onset, 11 weeks after ischemic reperfusion
Description: For the long-term studies, animals were subjected to behavioral tests, in order to assess their spontaneous spatial alternation and spatial memory skills, as markers of neurological damage present in longer periods, after the surgical procedure. According to previous literature, we selected the Y maze, in which both the exploration activity (spatial recognition) and spatial memory were evaluated.
For the exploration activity and spatial recognition, control animals and ischemic animals treated with the vehicle or ISQ-201 were placed in the center of the maze and let to explore for 8 min. The total number of arms that the animal entered indistinctly (number of arm entries) and the times that the animal explored consecutively—the three different arms of the maze (number of alternations or triads)—were registered by an observer blind to the treatment.
For the assessment of spatial memory, the control animals and ischemic animals treated with the vehicle or ISQ-201 were placed into one of the arms of the Y maze (start arm) and were allowed to explore the maze with one of the arms closed for 10 min (training trial). After 1 h, the rats were returned to the Y maze by placing them in the start arm and allowing them to freely explore all three arms of the maze for 3 min. The arm of the first choice of entry, the new or old, was registered manually by an observer blind to the treatment.

[2] = test system: transient middle cerebral artery occlusion; experiment: Transient focal cerebral ischemia (tMCAO), infarct size by TTC stain; assay type: in vivo, male C57BL/6 mice; details: mice, 48 h after tMCAO
[3] = test system: transient forebrain ischemia, hippocampal CA1 and cortical neurons; experiment: Global cerebral ischemia (4VO), neuronal apoptosis by TUNEL assay; assay type: in vivo, male Wistar rats; design: maximum neuroprotection (Emax), TUNEL assay: dose or concentration left out as unconfirmed; details: for maximum neuroprotection (Emax), TUNEL assay: iv at reperfusion onset
Description: Transient forebrain ischemia was induced in adult male Wistar rats (10–12 weeks, Charles River) by the standard four-vessel occlusion model (4VO) described previously. Briefly, both vertebral arteries were irreversibly occluded by electrocoagulation under anesthesia, with a mixture of atropine, ketamine, and diazepam (0.25, 62.5, and 5 mg/kg, respectively) delivered through intraperitoneal injection. After 24 h, ischemia was induced by carotid occlusion with atraumatic clips, for 15 min, and then the clips were removed from the carotid arteries to allow reperfusion. Body temperature was maintained at 37 °C during the surgical procedure. The animals were studied after 5 days of reperfusion (R5d) after which they were sacrificed. Sham control animals were prepared in the same way, without carotid occlusion. We performed a power analysis (http://www.biomath.info/power/ttest.htm) to determine the sample size. Significance level and statistical power were set at 0.05 and 0.8 (80%), respectively, which afforded a sample size of […] subjects per group. The treatments were administered with concealed allocation, and in randomized order, according to a computer-generated randomization program. Ischemic animals were treated with a vehicle solution (saline/ethanol, 90:10 vol/vol) or nitrone ISQ-201, dissolved in a vehicle solution through a single intravenous tail injection, when the carotid arteries were unclamped for reperfusion. In therapeutic window experiments, the animals were treated once at the reperfusion onset or at the set reperfusion time points, after ischemia. For the administration, at 6 h and 48 h of reperfusion after ischemia, the animals were anesthetized with isoflurane for 2–3 min and 5 min, respectively, prior to the treatment administration. An independent researcher prepared the treatments for each animal, according to the randomization schedule. Data of each experimental group were normalized to each vehicle control group. All procedures associated with animal experiments were approved by the Animal Care Ethics Committee of the Hospital Universitario Ramón y Cajal (Madrid, Spain, code no. 06/2015) and were performed according to the ARRIVE guidelines.
After 5 days of reperfusion (R5d), the animals were euthanized by transcardiac perfusion, under deep anesthesia. A washout step with 200 mL of saline via the left ventricle was followed by a fixation with 4% (w/v) paraformaldehyde solution in PBS. Brains were then removed and post-fixed in the same solution, overnight at 4 °C, sequentially washed with 10%, 20%, and 30% (w/v) sucrose in PBS, and embedded in Tissue-Tek O.C.T. (Sakura Finetek), before freezing at −80 °C. Brain coronal sections containing the hippocampus were obtained by cryostat sectioning at the level of interaural line +5.7 ± 0.2 mm on real capillary gap microscope slides (Dako).
Apoptotic neurons within the brain sections were detected by using the Terminal deoxynucleotidyl transferase-mediated dUTP Nick-End Labeling (TUNEL) assay (Promega). For this test, 5-µm-thick coronal cryostat brain sections containing the dorsal hippocampal formation were obtained, as described above, and post-fixed with 4% formaldehyde in PBS for 5 min, at room temperature. After washing in PBS for three times, the sections were permeabilized with 0.1 M sodium citrate, pH 6.0, for 1 min at 95 °C, then quickly cooled in ice and washed in PBS for 5 min at room temperature. […]

[4] = test system: lipid peroxidation and ROS levels; design: method as in PMID 26241908; details: preliminary results; cited from earlier work

## CC(C)[C@H]1CC[C@H]2[C@@H]3CCC4=C/C(=[N+](\C)[O-])CC[C@]4(C)[C@H]3CC[C@]12C [ISQ-201]
[1]
  spatial memory (new arm as first choice), Y maze: recovery of values similar to the control group
[1]; vs control group
  exploration activity (number of arm entries), Y maze: no significant differences with the control group
  spatial recognition (number of alternations or triads), Y maze: no significant differences
[2]; 0.05 mg/kg ip at onset of reperfusion
  infarct area in the brain vs vehicle: did not change
[2]; 0.1 mg/kg ip at onset of reperfusion
  reduction in lesion size with respect to vehicle-treated group: 21%
[3]; 0.05 mg/kg iv given at 48 h postreperfusion, evaluated at 5 days
  cell apoptosis vs vehicle, therapeutic window: did not show significant differences
[3]; 0.05 mg/kg iv given up to and including 6 h postreperfusion, hippocampal and cortical regions, evaluated at 5 days
  apoptosis-positive cells vs vehicle, therapeutic window: significantly reduced
[3]; 0.05 and 0.1 mg/kg iv at reperfusion onset, CA1 and cortical regions, 5 days of reperfusion
  apoptotic cells vs vehicle group: significant reduction
[3]; cortex, most potent concentration, 5 days of reperfusion
  maximum neuroprotection (Emax), TUNEL assay: 81%
[3]; hippocampal CA1, most potent concentration, 5 days of reperfusion
  maximum neuroprotection (Emax), TUNEL assay: 35%
[4]
  effect on lipid peroxidation and ROS levels: decreased
